In PubChem BioAssay AID1648 (Sanford-Burnham Center for Chemical Genomics, 2009):
Calls of active or inactive are those of the source. The rule behind the calls is not given here.

Each compound was assayed against Serine/threonine-protein kinase mTOR (Homo sapiens) (UniProt P42345) (assay: mTOR FRB domain ligand binding – biophysical, NMR (AID 1648)). Settings: NMR binding to FRB domain, chemical shift.
Chain of Serine/threonine-protein kinase mTOR (Homo sapiens) (P42345 2015-2114): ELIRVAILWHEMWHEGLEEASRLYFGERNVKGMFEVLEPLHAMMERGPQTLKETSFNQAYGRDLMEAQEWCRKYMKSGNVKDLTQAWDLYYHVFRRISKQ

Structure (SMILES)	Kd
NCc1ccc2c(c1)CCO2	> 4 mM (inactive)
COc1ccc(C(C)=O)c(O)c1	> 4 mM (inactive)
Cc1cc(C)n2nc(C(=O)NCc3ccco3)nc2n1	> 4 mM (inactive)
NC(=O)CCn1ncc2ccccc21	> 4 mM (inactive)
O=C(O)CCC(=O)Nc1nccs1	> 4 mM (inactive)
Cc1nc2nc(Cc3ccccc3)nn2c(C)c1Cl	> 4 mM (inactive)
CC(C)NC(=S)N1CCN(S(C)(=O)=O)CC1	> 4 mM (inactive)
CC(=O)Nc1ccc(S(=O)(=O)NC2=NCCS2)cc1	> 4 mM (inactive)
Cn1c(=O)c2c(n(C)c1=O)=NC1(CCCCC1)N=2	> 4 mM (inactive)
O=C1c2cccnc2C(=O)N1Cc1ccco1	> 4 mM (inactive)
O=C1CSC(=Nc2ccc(C(=O)O)cc2)N1	> 4 mM (inactive)
CNC(=S)N1CCN(C(=O)c2ccco2)CC1	> 4 mM (inactive)
O=C(O)C(O)C(O)C(O)C(O)C(=O)O (stereo not given)	> 4 mM (inactive)
O=C(Nc1ccccn1)C(=O)N1CCCC1	> 4 mM (inactive)
Cc1nc2ccccc2c(=O)n1N1C(=O)CCCC1=O	> 4 mM (inactive)
O=C(O)CCn1cncn1	> 4 mM (inactive)
CCC1(CC)C(=O)NC(=O)N=C1N	> 4 mM (inactive)
CC(=O)Oc1ccc2c(c1OC(C)=O)OCC1(O)Cc3c(cc(OC(C)=O)c(OC(C)=O)c3OC(C)=O)C21 (stereo not given)	> 4 mM (inactive)
COc1ccc(-c2cc(=O)c3c(O)cc(O[C@@H]4O[C@H](CO[C@H]5O[C@H](C)[C@@H](O)[C@H](O)[C@@H]5O)[C@@H](O)[C@H](O)[C@H]4O)cc3o2)cc1O	> 4 mM (inactive)
O=C(O)c1cccc2c1OCCCO2	> 4 mM (inactive)
COc1ccccc1-c1cn[nH]c(=S)n1	> 4 mM (inactive)
CC(=O)Oc1ccc(-c2nc(-c3cccnc3)no2)cc1	> 4 mM (inactive)

Structure (SMILES)	Kd
O=C(CC1Nc2ccccc2NC1=O)Nc1ccc(O)cc1 (stereo not given)	> 4 mM (inactive)
Cc1cc(C)n2nc(NCc3ccccc3)nc2n1	> 4 mM (inactive)
C/C=C(/C)C(=O)O[C@H]1CC[C@@]2(C)[C@@H]3CC[C@H]4[C@]5(O)C[C@H](O)[C@@]6(O)[C@@H](CN7C[C@@H](C)CC[C@H]7[C@@]6(C)O)[C@]5(O)C[C@@]42OC13O	> 4 mM (inactive)
Cn1ccc(NC(=S)NC2CCCC2)n1	> 4 mM (inactive)
Cc1nnc2sc(-c3ccco3)nn12	> 4 mM (inactive)
Cc1cc(N)ccc1NC(=O)c1ccco1	> 4 mM (inactive)
OCC1Cc2ccccc2N1 (stereo not given)	> 4 mM (inactive)
COc1cccc(-c2nc3ccc(O)cc3c(=O)o2)c1	> 4 mM (inactive)
Oc1ccc2nonc2c1	> 4 mM (inactive)
O=S1(=O)NC(=NCc2ccco2)c2ccccc21	> 4 mM (inactive)
CSc1nc(=O)[nH]c2c1CCC2	> 4 mM (inactive)
Cc1cc(C(=O)NCc2cccs2)c(C)o1	> 4 mM (inactive)
O=C(O)c1ccc(-n2cncn2)cc1	> 4 mM (inactive)
c1ccc2[nH]c(-c3cscn3)nc2c1	> 4 mM (inactive)
Cn1c(=O)c2[nH]c(Nc3ccccc3)nc2n(C)c1=O	> 4 mM (inactive)
Nc1ccc(-c2cnco2)cc1	> 4 mM (inactive)
COc1cc(OC)c2c(c1Cl)OC1(C2=O)C(O)=CC(=O)CC1C (stereo not given)	> 4 mM (inactive)
C=C1C(N)CC2CC1C2(C)C (stereo not given)	> 4 mM (inactive)
COc1ccc(/C=C2/SC(N)=NC2=O)c(OC)c1	> 4 mM (inactive)
Nc1ccc(CN2CCOCC2)cc1	> 4 mM (inactive)
O=C1NC(=Nc2ccccc2Cl)SC1(CO)CO	> 4 mM (inactive)
Cn1c(CN)nc2ccccc21	> 4 mM (inactive)

Structure (SMILES)	Kd
COc1nc(C)ccc1-c1noc(-c2ccco2)n1	> 4 mM (inactive)
Nc1cc2ccccc2cn1	> 4 mM (inactive)
C[C@@H]1CC[C@@]2(NC1)O[C@H]1C[C@H]3C4CC=C5C[C@@H](O)CC[C@]5(C)C4CC[C@]3(C)C1[C@@H]2C (stereo not given in full)	> 4 mM (inactive)
Nc1cccc(S(=O)(=O)N2CCOCC2)c1	> 4 mM (inactive)
Cc1nn(C)c(Cl)c1S(=O)(=O)N1CCOCC1	> 4 mM (inactive)
O=C(O)c1ccc(-n2cccc2)cc1	> 4 mM (inactive)
O=NN1C(=O)c2ccccc2C1=O	> 4 mM (inactive)
O=C1Nc2ccccc2C12OCCO2	> 4 mM (inactive)
CC(=O)O[C@@H]1CC2C(C)(C)C(=O)C=C[C@]2(C)C2CC[C@]3(C)C(=CC(=O)O[C@H]3c3ccoc3)[C@@]21C (stereo not given in full)	> 4 mM (inactive)
COc1cc2ccc(=O)oc2c2ccoc12	> 4 mM (inactive)
O=C1CCC(=O)N1CNc1ccccc1	> 4 mM (inactive)
Cc1cccc(N2C(=O)CC(=O)NC2=O)c1	> 4 mM (inactive)
CC(=O)CNc1cc(CNC(C)=O)c(C)cc1C	> 4 mM (inactive)
COc1c2ccoc2nc2c(OC)c(OCC(O)C(C)(C)O)ccc12 (stereo not given)	> 4 mM (inactive)
NC(=O)Cc1nc2ccccc2[nH]1	> 4 mM (inactive)
Cc1nnsc1-c1onc(C)c1C(=O)O	> 4 mM (inactive)
O=C(O)CCCNC(=O)c1ccccc1C(=O)O	> 4 mM (inactive)
CC(C)NC(=O)c1cc(=O)n(C)c(=O)n1C	> 4 mM (inactive)
O=C(O)c1csc2ccccc12	> 4 mM (inactive)
O=C1CS/C(=N/S(=O)(=O)c2ccccc2)N1	> 4 mM (inactive)
O=C(O)c1ccc2nsnc2c1	> 4 mM (inactive)
O=C1CSC2(CN3CCC2CC3)N1 (stereo not given)	> 4 mM (inactive)

Structure (SMILES)	Kd
Fc1cccc(Cl)c1CN1CCNCC1	> 4 mM (inactive)
COc1cc2c(cc1OC)C1Cc3ccc(OC)c(OC)c3CN1CC2 (stereo not given)	> 4 mM (inactive)
Cc1ccccc1-n1c(-c2cccnc2)n[nH]c1=S	> 4 mM (inactive)
C[C@H]1O[C@@H](O[C@H]2[C@@H](O)C[C@H](O[C@H]3[C@@H](O)C[C@H](O[C@H]4CC[C@]5(C)C6CC[C@]7(C)[C@@H](C8=CC(=O)OC8)CC[C@]7(O)C6CC[C@@H]5C4)O[C@@H]3C)O[C@@H]2C)C[C@H](O)[C@@H]1O (stereo not given in full)	> 4 mM (inactive)
Cc1occc1C(=O)N1CCN(S(C)(=O)=O)CC1	> 4 mM (inactive)
CN1CCN(C(=O)c2cc(-c3ccccc3)on2)CC1	> 4 mM (inactive)
CC(=O)c1ccc2c(c1)OCCO2	> 4 mM (inactive)
Cc1cccc(C)c1N1C(=O)CCC1=O	> 4 mM (inactive)
CC12CN([N+](=O)[O-])C3(C(N)=O)CC1CCC23C (stereo not given)	> 4 mM (inactive)
O=C(O)CC(O)c1nc2ccccc2[nH]1 (stereo not given)	> 4 mM (inactive)
O=C(c1cccnc1Cl)N1CCOCC1	> 4 mM (inactive)
O=C(CSc1ccccc1)N1CCC2(CC1)OCCO2	> 4 mM (inactive)
c1csc(-c2nn[nH]n2)c1	> 4 mM (inactive)
CS(=O)(=O)N1CCN(C(=O)c2ccccc2)CC1	> 4 mM (inactive)
O=C(O)C1CNc2ccccc2O1 (stereo not given)	> 4 mM (inactive)
O=c1c(-c2ccc(O)cc2)coc2cc(O)ccc12	> 4 mM (inactive)
CSc1nnc(-c2ccccc2NC(C)=O)o1	> 4 mM (inactive)
CC(=O)c1cccc(NC(=O)Nc2c(C)nn(C)c2C)c1	> 4 mM (inactive)
CCOC(=O)c1nc2ccccc2c(=O)n1N	> 4 mM (inactive)
